Assay results published in patent US10004750B2, “Salt of cephalosporin derivative, its crystalline solid and a method of manufacturing thereof” (Shionogi & Co., Ltd., priority 2014, dated 2018).

Key:
Type in all cases: physicochemical
[1] = Dynamic vapor sorption measurement; conditions: 25° C.
Description: Dynamic vapor sorption (DVS) is a gravimetric technique that measures how quickly and how much of water is absorbed and desorbed by a sample in several relative humidity (RH). A degree of water absorption is calculated by weight change in controlled humidity increased from 0% RH to 95% RH stepped 5% or 10%. Similarly, a degree of water desorption is calculated in humidity decreased from 95% RH to 0% RH. An absorption-desorption isotherm is obtained by plotting a value of weight change in each humidity. […] When the anhydrate crystal transforms to hydrate crystal by humidity, the results of measurement indicate transformation humidity and amount of crystal water. The dynamic vapor sorption measurement of the crystalline solid obtained in each example was carried out. The sample of about 18.0 mg was measured and transferred to a sample pan, and it was measured. The measurement condition is shown below. • Device: DVS Advantage made by Surface Measurement Systems LTD. • Measurement point: each 5% from RH95% to RH0%. • Temperature: 25° C. (Method of Measuring the Karl Fischer Method) The results of a dynamic vapor sorption measurement of the type I crystal D obtained in Example 6-1 were shown in FIG. 7 and Table 7. Dynamic vapor sorption measurement can be occurred errors within the range of ±0.5%. An increased amount of water (%) represents an increased amount of the type I crystal at 0% RH.

[2] = Solid stability test of crystalline solid; conditions: −20±5° C. or 5±5° C., light shielding, double polyethylene bag in metal can, 0, 3, 6, 9, 12 months
Description: The type I crystal D about 1 g was put in a polyethylene bag and tightened with a convex. This bag was further put in a polyethylene bag and tightened with a convex in the same way. The above sample of the same storage conditions was put together in a metal can as a stability evaluation sample. The storage conditions, storage period and test items are as follows.
• Temperature: −20±5° C. or 5±5° C. • Light shielding • Package form: double polyethylene bag, convex, metal can • Storage period: 0, 3, 6, 9, 12 months (Measurement)
Using the type I crystal D stored at the above storage conditions and storage period, after viewing the change in appearance, the contents of the compound (IA) and the related substances were measured by the following method.
Step 1: Preparation of a Sample Solution
About 40 mg of the sample was weighed precisely, and dissolved in a sample dilution solvent to be exactly 25 mL. • 5 mmol/L phosphate buffer/liquid chromatography acetonitrile mixture (9:1) was used as the above sample dilution solvent was used. Herein, water: 0.05 mol/L sodium dihydrogen phosphate test solution: 0.05 mol/L disodium hydrogen phosphate reagent mixture=18:1:1 (pH is about 7.1) was used as a phosphate buffer. Step 2: HPLC Measurement of Related Substances
The above sample solution was measured by liquid chromatography under the following test condition to measure peak areas of the compound (IA) and its related substances by the automatic integration method.
• Column: YMC-UltraHT Pro C18, φ2.0×100 mm, 2 μm, YMC • Column temperature: 35° C. • UV detection wavelength: 261 nm • Mobile phase: [A] […]
• Flow rate: 0.5 mL per minute (a retention time of the compound (IA) about 5 minutes) The amount of related substances in the sample was determined by using the following formula. […]
The above standard solution and sample solution was measured by liquid chromatography under the following test condition to determine a peak area of the compound (IA) by an automatic integration method. […]
The content of related substances in the sample was determined using the following formula. […]

[3] = Solubility of sodium salt in various aqueous media
Description: To anisole (1.54 L) cooling in dry ice-ethanol bath was added aluminium chloride (495.4 g, 3.71 mol) followed by dichloromethane. 610 g of the crude product containing the compound 8 obtained by Step 1 was dissolved in a mixed solution of dichloromethane (0.51 L) and anisole (1.03 L) and spent 1 hour adding dropwise to the above aluminium chloride solution re-cooling to −40° C. The container used for the dropwise was washed with a mixed solution of dichloromethane (0.36 L) and anisole (0.51 L) and the wash fluid was added to the reaction solution. The reaction solution was stirred at −20° C. for 2 hours, and added to a mixed solution of ethanol (7.1 L), 1 mol/L hydrochloric acid (7.1 L) while stirring under cooling in ice-bath. The mixed solution was stirred for 30 minutes under ice-cooling, dichloromethane (5.14 L) and saturated brine (257 mL) was added, the separated aqueous layer was washed with dichloromethane (5.14 L). The organic layer was extracted with a mixture of water (2.57 L) and saturated brine (100 mL), and the separated aqueous layer was combined with the previous aqueous layer. The aqueous layer was stirred under cooling in ice-bath, and 2 mol/L sodium hydroxide aqueous solution was added to adjust pH to 1.5 and the solution was left to stand. The aqueous layer was concentrated and purified by HP20SS column (eluent: 13% acetonitrile water). Sodium bicarbonate (8.75 g) was added to the collected fractions containing the target product and the resulting solution was concentrated under reduced pressure until 500 mL. The solution was diluted by adding water (1.6 L) and filtered with cotton plug, and then the filtrate was lyophilized to yield the compound 9 (77.8 g). • Elemental analysis: (calculated as C30H33ClN7O10S2Na 4.5H2O) • Calculated: C; 42.13, H; 4.95, N; 11.46, S; 7.50, Cl; 4.14, Na; 2.69(%) • Measured: C; 42.22, H; 4.88, N; 11.24, S; 7.01, Cl; 4.04, Na; 2.74(%) The solubility of the obtained compound 9 in various aqueous medium (water for injection, saline, dextrose solution) was all 100 mg/mL or more, and they are very high solubility.

[4] = Solubility of the compound (IA) in water
[5] = pKa measurement by capillary electrophoresis method (CE method); conditions: 25° C., pH 2.5 to 11.5 buffer
Excerpt: (Measuring Method by Capillary Electrophoresis Method, CE Method)
It is a method by using Capillary Zone Electrophoresis technique and a method of separation by using free electrophoresis of each sample component in a buffer including electrolyte.
After injecting a compound solution to fused silica capillary filling a buffer adjusting the pH 2.5 to 11.5, high voltage (Inlet side +, Outlet side −) is on capillary, and then a compound moves at a speed reflecting an ionized state at the pH of the buffer (a compound having (+) charge moves quickly, and a compound having (−) charged moves slowly). pKas was calculated by plotting the difference between the migration time of the compound and that of a neutral molecule (DMSO) against pH, and fitting. […]

CC(C)(O/N=C(\C(=O)N[C@@H]1C(=O)N2C(C(=O)[O-])=C(C[N+]3(CCNC(=O)c4ccc(O)c(O)c4Cl)CCCC3)CS[C@H]12)c1csc(N)n1)C(=O)O [type I crystal D]
Increased amount of water (%) ([1]; Relative humidity 0% RH, relative to type I crystal at 0% RH): 0.00%
Increased amount of water (%) ([1]; Relative humidity 5% RH, relative to 0% RH): 3.33%
Increased amount of water (%) ([1]; Relative humidity 10% RH, relative to 0% RH): 5.26%
Increased amount of water (%) ([1]; Relative humidity 15% RH, relative to 0% RH): 7.70%
Increased amount of water (%) ([1]; Relative humidity 20% RH, relative to 0% RH): 10.53%
Increased amount of water (%) ([1]; Relative humidity 25% RH, relative to 0% RH): 11.67%
Increased amount of water (%) ([1]; Relative humidity 30% RH, relative to 0% RH): 12.28%
Increased amount of water (%) ([1]; Relative humidity 35% RH, relative to 0% RH): 12.75%
Increased amount of water (%) ([1]; Relative humidity 40% RH, relative to 0% RH): 13.16%
Increased amount of water (%) ([1]; Relative humidity 45% RH, relative to 0% RH): 13.54%
Increased amount of water (%) ([1]; Relative humidity 50% RH, relative to 0% RH): 13.91%
Increased amount of water (%) ([1]; Relative humidity 55% RH, relative to 0% RH): 14.25%
Increased amount of water (%) ([1]; Relative humidity 60% RH, relative to 0% RH): 14.55%
Increased amount of water (%) ([1]; Relative humidity 65% RH, relative to 0% RH): 14.93%
Increased amount of water (%) ([1]; Relative humidity 70% RH, relative to 0% RH): 15.26%
Increased amount of water (%) ([1]; Relative humidity 75% RH, relative to 0% RH): 15.55%
Increased amount of water (%) ([1]; Relative humidity 80% RH, relative to 0% RH): 15.82%
Increased amount of water (%) ([1]; Relative humidity 85% RH, relative to 0% RH): 16.08%
Increased amount of water (%) ([1]; Relative humidity 90% RH, relative to 0% RH): 16.34%
Increased amount of water (%) ([1]; Relative humidity 95% RH, relative to 0% RH): 16.60%
change in appearance on storage [2]: no change in the appearance
increase of content of related substances on storage (HPLC) [2]: not observed
solid storage stability (overall) [2]: very stable

CC(C)(O/N=C(\C(=O)N[C@@H]1C(=O)N2C(C(=O)[O-])=C(C[N+]3(CCNC(=O)c4ccc(O)c(O)c4Cl)CCCC3)CS[C@H]12)c1csc(N)n1)C(=O)O [compound 9]
solubility ([3]; dextrose solution, saline or isotonic): ≥ 100 mg/mL
solubility ([3]; saline, saline or isotonic): ≥ 100 mg/mL
solubility ([3]; water for injection, water): ≥ 100 mg/mL

CC(C)(O/N=C(\C(=O)N[C@@H]1C(=O)N2C(C(=O)[O-])=C(C[N+]3(CCNC(=O)c4ccc(O)c(O)c4Cl)CCCC3)CS[C@H]12)c1csc(N)n1)C(=O)O (stereo in doubt) [compound (IA)]
solubility in water [4]: very low
pKa1 [5]: 4.2
pKa2 [5]: 7.2
